Source: patent US12691124B2, “Methods of controlling and improving brain health” (ICAHN SCHOOL OF MEDICINE AT MOUNT SINAI, priority 2019, dated 2026)

Tested on: BRD2 or BRD4
Experiment: ChIP sequencing, BRD2 or BRD4 promoter occupancy versus gene expression
Type: cell-based, mouse
Experimental: Chromatin Immunoprecipitation with Sequencing. Primary cortical neuronal cultures were washed once with PBS then fixed for 10 minutes with a 1% formaldehyde solution in PBS with protease inhibitors (Sigma #P8340) at room temperature. Fixation was quenched adding glycine to a final concentration of 0.125M (5 minutes, room temperature). 10e6 fixed cells were resuspended in 1 ml of lysis buffer (50 mM Hepes KOH, pH7.5, 140 mM NaCl, 1 mM EDTA, 10% glycerol, 0.5% NP-40, 0.25% Triton X-100) and 10 ul of protease inhibitor cocktail (PIC). Samples were rotated for 10 minutes at 4 degrees then spun at 1350 g at 4 C for 10 minutes. Pellets were resuspended in 1 ml of lysis buffer 2 (10 mM Tris-HCl pH8.0, 200 mM NaCl, 1 mM EDTA, 0.5 mM EGTA) and 10 ul PIC.). 5e6 nuclei were sonicated in lysis buffer 3 (10 mM Tris-HCl pH8.0, 100 mM NaCl, 1 mM EDTA, 0.5 mM EGTA, 0.1% Na-Deoxicholate, 0.5% N-Lauroylsarcosine) at 4 degrees for 5 cycles of 30 seconds ON/30 seconds OFF using the Diagenode bioruptor. After, 30 ul of 10% Triton-X100 was added to each sample and then spun for 15 minutes at 20,000 g at 4 degrees. Sonication efficiency was checked by running the samples on a 2% agarose gel to confirm enrichment for fragments from 200-500 bps.
Streptavidin M-280 dynabeads were blocked with 0.5% BSA solution and coupled to 7 ug of antibody (Brd4 #Ab84778, Brd2 Bethyl #A302-583A, Pol2 Ser5 #Ab5408) for at least 8 hours at 4 degrees, rotating. Antibody-coupled beads were then added to sonicated chromatin (20e6 cells for Brd2/Brd4, 10e6 for Pol2) and incubated overnight at 4 degrees. After washing the IPs eight times with wash buffer (50 mM Hepes-KOH pH7.6, 100 mM LiCl, 1 mM EDTA, 1% NP-40, 0.7% Na-Deoxycholate) and once with TE buffer (10 mM Tris-HCl, 1 mM EDTA, 50 mM NaCl), Chromatin was eluted from magnetic beads in 200 ul elution buffer ([…] Tris-HCl pH8.0, 10 mM EDTA, 1% SDS) for 45 minutes at 65 degrees. Samples were de-crosslinked overnight at 65 degrees and proteins and RNA were removed by incubating with RNAse and proteinase k. Samples were purified using the Qiagen PCR purification kit according to the manufacturers protocol.
Samples were end-repaired using the End-IT DNA End-Repair Kit (#ER0720). After 45 minutes incubation, samples were purified using the Qiagen PCR Clean up kit as described above. Samples were adenylated using a reaction mix (200 uM dATP, 1× Klenow buffer NEB2, Klenow Fragment (3′ to 5′ exo-), NEB M0212L) and incubating at 37 degrees for 30 minutes. After, samples were purified as above except using the Minelute columns to minimize sample loss. Adapters were ligated to samples using a reaction mix containing T4 DNA ligase buffer, Solexa adapter oligo mix and 1200 units of T4 DNA ligase. The samples were incubated according to the following PCR program: 1) 20 C for 15 min, 2) 4 C for 2 h, 3) 0.1 C/sec to 16 C, 4) 16 C for 20 min, 5) 0.1 C/sec to 4 C, 6) back to step 2 for 6 cycles. Samples were purified using the Minelute kit as described above. Samples were amplified using a reaction mix containing the Phusion HF buffer, 300 uM dNTP mix, 3% DMSO, diluted Solexa primers 1.0 and 2.0, and 1 unit of Phusion polymerase. Samples were amplified according to the following program: 1) 30 sec at 98 C, 2) 18 cycles of: 10 sec at 98 C, 30 sec at 65 C, 30 sec at 72 C, 3) 5 min 72 C. Prepared samples were then sequenced on the HiSeq 2000 platform by Rockefeller's Genomic Core Facility. Bioinformatic analysis was performed by the Shen Lab. Briefly, raw sequencing data was processed by using Illumina bcl2fastq2 Conversion Software v2.17. The ChIP-seq data was first checked for quality using the various metrics generated by FastQC. Raw sequencing reads were then aligned to the mouse mm9 genome using the default settings of Bowtie (v2.2.0)87. Only uniquely mapped reads were retained, and the alignments were subsequently filtered using the SAMtools package (v0.1.19)88 to remove duplicate reads. […]

For CC(=O)N1c2ccc(-c3ccc(CN4CCCCC4)cc3)cc2[C@H](Nc2ccccc2)CC1C (stereo in doubt) [IBET858], the “displacement of BET proteins from the chromatin” value was “displaces all three BET proteins from the chromatin”, the “down-regulated genes that are bound by Brd2 or Brd4” value (1 week IBET858, 844/1391) was 61% and the “genes with increased promoter occupancy of BRD2 or BRD4 that are also transcriptionally upregulated” value (6 h IBET858) was 212 genes. The “genes with reduced promoter occupancy of BRD2 or BRD4 that are also transcriptionally downregulated” value (6 h IBET858) was 528 genes, the “down-regulated genes that are bound by Brd2 or Brd4” value (12 h IBET858, 733/1158) was 63% and the “gene promoters with reduced BET binding” value (short-term treatment 6 h) was “approximately 1000 gene promoters”.
